Results from PubChem BioAssay AID256 (DTP/NCI, 2004).
Values joined by “and” are separate entries in the source; they are usually repeats but may differ in a detail not shown here. Identical values can stand only once. Inconclusive results and toxic doses are left out. How the source made its calls: active means survival T/C of 150% or more; inactive means T/C below 125% in these data.

Tested on: CD2F1 mice, L1210 leukemia ip, survival T/C
Experiment: NCI In Vivo Anticancer Drug Screen. Data for tumor model L1210 Leukemia (intraperitoneal) in CD2F1 (CDF1) mice
Details: endpoint: mean survival time, higher = longer survival
In short: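 Read-out first: treated-group measurement over vehicle-control measurement, expressed as a ratio. Animals bore a transplanted tumor line and were dosed with compound or vehicle.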

[1] = dose: 100.0 mg/kg/injection, schedule: Q04DX003 (ip), vehicle: saline with Tween-80
[2] = dose: 200.0 mg/kg/injection, schedule: Q04DX003 (ip), vehicle: saline with Tween-80
[3] = dose: 400.0 mg/kg/injection, schedule: Q04DX003 (ip), vehicle: saline with Tween-80
[4] = dose: 100.0 mg/kg/injection, schedule: Q01DX009 (ip), vehicle: saline with Tween-80
[5] = dose: 200.0 mg/kg/injection, schedule: Q01DX009 (ip), vehicle: saline with Tween-80
[6] = dose: 400.0 mg/kg/injection, schedule: Q01DX009 (ip), vehicle: saline with Tween-80
[7] = dose: 6.25 mg/kg/injection, schedule: Q04DX002 (ip), vehicle: saline with Tween-80
[8] = dose: 12.5 mg/kg/injection, schedule: Q04DX002 (ip), vehicle: saline with Tween-80
[9] = dose: 25.0 mg/kg/injection, schedule: Q04DX002 (ip), vehicle: saline with Tween-80

Measured: T/C

COc1ccc(/C=N\N2C(=O)/C(=C\c3ccc(OC)cc3)SC2=S)cc1
inactive: [1] 97 % of control | [2] 93 % of control | [3] 89 % of control

CC1(C)CCC2(C(=O)O)CCC3(C)C(=CCC4C5(C)CC(O)C(OC6OC(CO)C(O)C(O)C6O)C(C)(CO)C5C(O)CC43C)C2C1 (stereo not drawn)
inactive: dose: 50.0 mg/kg/injection, schedule: Q04DX002 (ip), vehicle: saline with Tween-80 102 % of control

O=C1C=CC(=O)c2c(O)ccc(O)c21
inactive: dose: 1.0 mg/kg/injection, schedule: Q04DX003 (ip), vehicle: saline with Tween-80 91 % of control | dose: 2.0 mg/kg/injection, schedule: Q04DX003 (ip), vehicle: saline with Tween-80 104 % of control | dose: 4.0 mg/kg/injection, schedule: Q04DX003 (ip), vehicle: saline with Tween-80 104 % of control

BrC1(Br)C2CCCCCCC21 (stereo not drawn)
inactive: [4] 91 % of control | [1] 87 % of control | [5] 87 % of control | [2] 98 % of control | [3] 96 % of control

O=C(NCCCl)NC1C(O)OC(CO)C(O)C1O (stereo not drawn)
inactive: dose: 12.5 mg/kg/injection, schedule: Q01DX009 (ip), vehicle: water 107 % of control | dose: 25.0 mg/kg/injection, schedule: Q01DX009 (ip), vehicle: water 107 % of control | dose: 50.0 mg/kg/injection, schedule: Q01DX009 (ip), vehicle: water 104 % of control | dose: 100.0 mg/kg/injection, schedule: Q01DX009 (ip), vehicle: water 104 % of control | dose: 200.0 mg/kg/injection, schedule: Q01DX009 (ip), vehicle: water 105 % of control

O=C(O)c1ccccc1C(=O)Nc1ccc(Cl)cc1
inactive: [4] 95 % of control | [1] 94 % of control | [5] 89 % of control | [2] 96 % of control | [3] 86 % of control

O=[n+]1cc2ccccn2cc1-c1ccccc1
inactive: [4] 97 % of control | [1] 104 % of control | [5] 101 % of control | [2] 104 % of control | [6] 101 % of control

C=CC[n+]1ccccc1Cc1ccccc1
inactive: dose: 25.0 mg/kg/injection, schedule: Q01DX001 (ip), vehicle: saline 98 % of control | dose: 50.0 mg/kg/injection, schedule: Q01DX001 (ip), vehicle: saline 95 % of control

CC(=O)Nc1nc(CCCCc2ccccc2)cc(=O)[nH]1
inactive: dose: 37.5 mg/kg/injection, schedule: Q01DX001 (ip), vehicle: saline with Tween-80 100 % of control | dose: 75.0 mg/kg/injection, schedule: Q01DX001 (ip), vehicle: saline with Tween-80 96 % of control | dose: 150.0 mg/kg/injection, schedule: Q01DX001 (ip), vehicle: saline with Tween-80 94 % of control

CCOC(=S)SCC(=O)O
inactive: dose: 100.0 mg/kg/injection, schedule: Q01DX001 (ip), vehicle: saline with Tween-80 92 % of control | dose: 200.0 mg/kg/injection, schedule: Q01DX001 (ip), vehicle: saline with Tween-80 96 % of control

[I][Pt][I].c1ccc([PH+](c2ccccc2)c2ccccc2)cc1.c1ccc([PH+](c2ccccc2)c2ccccc2)cc1
inactive: [7] 104 % of control | [8] 93 % of control | [9] 96 % of control | dose: 100.0 mg/kg/injection, schedule: Q04DX002 (ip), vehicle: saline with Tween-80 87 % of control | dose: 400.0 mg/kg/injection, schedule: Q04DX002 (ip), vehicle: saline with Tween-80 91 % of control

COc1ccc(CCNC(=O)/C=C\C(=O)O)cc1OC
inactive: [4] 106 % of control | [1] 89 % of control | [5] 103 % of control | [2] 103 % of control | [6] 101 % of control | [3] 106 % of control

O=C(NC/C=C/Br)Nc1cnc2ccccc2c1
inactive: dose: 25.0 mg/kg/injection, schedule: Q04DX003 (ip), vehicle: saline with Tween-80 102 % of control | dose: 50.0 mg/kg/injection, schedule: Q04DX003 (ip), vehicle: saline with Tween-80 93 % of control

O=COC1CC2CC1C1CCCC21 (stereo not drawn)
inactive: dose: 50.0 mg/kg/injection, schedule: Q01DX009 (ip), vehicle: saline with Tween-80 95 % of control | [4] 93 % of control | [5] 97 % of control

O=C1c2ccccc2C2c3[nH]c4ccccc4c3CCN12 (stereo not drawn)
inactive: dose: 100.0 mg/kg/injection, schedule: Q01DX009 (ip), vehicle: saline sonified 97 % of control | [1] 87 % of control | dose: 200.0 mg/kg/injection, schedule: Q01DX009 (ip), vehicle: saline sonified 96 % of control | [2] 95 % of control | dose: 400.0 mg/kg/injection, schedule: Q01DX009 (ip), vehicle: saline sonified 97 % of control | [3] 93 % of control

NC(=O)c1ccn(C2OC(CO)C(O)C2O)n1 (stereo not drawn)
inactive: dose: 200.0 mg/kg/injection, schedule: Q01DX005 (ip), vehicle: other 106 % of control | dose: 400.0 mg/kg/injection, schedule: Q01DX005 (ip), vehicle: other 107 % of control | dose: 800.0 mg/kg/injection, schedule: Q01DX005 (ip), vehicle: other 117 % of control

CN(Cc1cnc2nc(N)nc(N)c2n1)c1ccc(C(=O)NC(CCC(=O)NC(CCC(=O)NC(CCC(=O)NC(CCC(=O)O)C(=O)O)C(=O)O)C(=O)O)C(=O)O)cc1 (stereo not drawn)
inactive: dose: 0.5 mg/kg/injection, schedule: Q01DX005 (ip), vehicle: sodium bicarbonate 102 % of control | dose: 1.0 mg/kg/injection, schedule: Q01DX005 (ip), vehicle: sodium bicarbonate 114 % of control and 111 % of control | dose: 2.0 mg/kg/injection, schedule: Q01DX005 (ip), vehicle: sodium bicarbonate 118 % of control

Cc1cc(OCC2=NCCN2)c(C)c(C)c1Cl
inactive: [7] 94 % of control | [8] 94 % of control | [9] 97 % of control

CC(=O)NC(CSCC(=O)c1ccccc1)C(=O)O (stereo not drawn)
inactive: [1] 98 % of control | [2] 102 % of control | [3] 100 % of control
